Measured values published in US20210213104A1, “GLUCAGON AND GLP-1 CO-AGONISTS FOR THE TREATMENT OF CHRONIC KIDNEY DISEASE AND DIABETIC KIDNEY DISEASE IN TYPE 2 DIABETES” (MEDIMMUNE LIMITED, priority 2020, published 2021).

System: subjects with T2DM and renal impairment
Assay: Phase 2a: continuous glucose monitoring (CGM)
Assay type: in vivo, human
Details: ITT
Procedure: Cotadutide was titrated from 50 μg up to 300 μg and administered once daily by subcutaneous (SC) injection over 32 days.
Cotadutide was administered at 50 μg once daily for 4 days, followed by 100 μg daily for 7 days, 200 μg daily for 7 days, and 300 μg daily for 14 days (n=20). Placebo was administered one daily for 32 days (n=20). Cotadutide and placebo were administered in the morning. Dosing commenced following predose baseline vital signs, blood tests (including HbA1c), an electrocardiogram (ECG), body weight measurement, and bioimpedance spectroscopy (BIS). Subjects then returned for daily dosing or remained overnight locally until Day 5, and thereafter, had visits at weekly intervals until a maintenance dose of 300 μg was established. Thus, Cotadutide or placebo was administered at the study site by study personal for the first four doses and on site on Days 5, 12, 19, and 32. At all other times, subjects preformed dosing at home.
A Freestyle Libre® Pro CGM device was used to measure interstitial glucose levels. […] Data generated by CGM was used at visits to adjust insulin doses and other treatments.
The CGM sensor, which is a small plastic circular device of 35 mm diameter and 5 mm depth, was applied to the back of the upper arm. Subjects wore the CGM sensor continuously up until the time of a sensor change, which was to occur within 14 days, and they were advised that they could bathe and shower, and swim in up to 3 m depth for up to 30 minutes while wearing the CGM sensor. When the CGM sensor was removed, a new CGM sensor could be reapplied, ideally close to the original site, but with the subject's site preference taken into account. CGM sensors were single-use only.
If a subject was unable to tolerate wearing the CGM sensor for the entire duration of the study, the sensor was removed; but the subject was to remain in the study with or without continued CGM and could instead be instructed to monitor capillary plasma glucose measurements four times per day (before meals and before bedtime) and record these levels in the diary provided.
Subjects underwent continuous glucose monitoring (CGM) starting from Day −14 to Day 40 (±5 days), with sensor changes within 14-day intervals. CGM readings were used to analyze change in average CGM glucose and glucose AUC7 d, coefficient of variation as a marker of glycemic variability, and time spent in target glucose range and hypoglycemia, to enable comparison across different dose levels.

[1] = 200 μg (Days 12 to 18), baseline Days −8 to −2, ANCOVA
[2] = 200 μg (Days 12 to 18), baseline Days −8 to −2
[3] = 200 μg Dose (Days 12 to 18), Insulin Dose < 20 U/day
[4] = 200 μg Dose (Days 12 to 18), Insulin Dose ≥ 20 U/day
[5] = 200 μg Dose (Days 12 to 18), Total

CCCCCCCCCCCCCCCC(=O)N[C@@H](CCC(=O)NCCCC[C@H](NC(=O)[C@H](CC(=O)O)NC(=O)[C@H](CO)NC(=O)[C@@H](NC(=O)[C@H](Cc1ccccc1)NC(=O)[C@@H](NC(=O)CNC(=O)[C@H](CCC(N)=O)NC(=O)[C@H](CO)NC(=O)[C@@H](N)Cc1c[nH]cn1)[C@@H](C)O)[C@@H](C)O)C(=O)N[C@@H](CO)C(=O)N[C@@H](CCC(=O)O)C(=O)N[C@@H](Cc1ccc(O)cc1)C(=O)N[C@@H](CC(C)C)C(=O)N[C@@H](CC(=O)O)C(=O)N[C@@H](CO)C(=O)N[C@@H](CCC(=O)O)C(=O)N[C@@H](CCCNC(=N)N)C(=O)N[C@@H](C)C(=O)N[C@@H](CCCNC(=N)N)C(=O)N[C@@H](CC(=O)O)C(=O)N[C@@H](Cc1ccccc1)C(=O)N[C@H](C(=O)N[C@@H](C)C(=O)N[C@@H](Cc1c[nH]c2ccccc12)C(=O)N[C@@H](CC(C)C)C(=O)N[C@@H](CCC(=O)O)C(=O)N[C@@H](C)C(=O)NCC(=O)NCC(=O)O)C(C)C)C(=O)O [Cotadutide]
Time in target range, Difference in LS Mean Change (vs Placebo) (100 μg Dose (Days 5 to 11), Total): 22.74% | Average CGM Glucose Over 7-Day Periods, End of Dosing Period, Mean (200 μg (Days 12 to 18)): 131.724 mg/dL | Average CGM Glucose Over 7-Day Periods, End of Dosing Period, Median (200 μg (Days 12 to 18)): 121.570 mg/dL | Percentage of time CGM Glucose in Hyperglycemia (>180 mg/dL), End of Dosing Period, Mean (200 μg (Days 12 to 18)): 14.77% | Percentage of time CGM Glucose in Hyperglycemia (>180 mg/dL), End of Dosing Period, Median (200 μg (Days 12 to 18)): 6.61% | Average CGM Glucose Over 7-Day Periods, Difference in LS Mean Change (vs Placebo) [1]: -40.34 mg/dL | Average CGM Glucose Over 7-Day Periods, LS Mean Change [1]: -30.66 mg/dL | Percentage of time CGM Glucose in Clinically Significant Hypoglycemia (<54 mg/dL), Difference in LS Mean Change (vs Placebo) [1]: 0.43% | Percentage of time CGM Glucose in Clinically Significant Hypoglycemia (<54 mg/dL), LS Mean Change [1]: −0.21% | Percentage of time CGM Glucose in Hyperglycemia (>180 mg/dL), Difference in LS Mean Change (vs Placebo) [1]: −25.47% | Percentage of time CGM Glucose in Hyperglycemia (>180 mg/dL), LS Mean Change [1]: −19.24% | Percentage of time CGM Glucose in Hypoglycemia (<70 mg/dl), Difference in LS Mean Change (vs Placebo) [1]: 0.86% | Percentage of time CGM Glucose in Hypoglycemia (<70 mg/dl), LS Mean Change [1]: −0.14% | Average CGM Glucose Over 7-Day Periods, Change from Baseline to End of Dosing Period, Mean [2]: -30.668 mg/dL | Average CGM Glucose Over 7-Day Periods, Change from Baseline to End of Dosing Period, Median [2]: -32.533 mg/dL | Percentage of time CGM Glucose in Hyperglycemia (>180 mg/dL), Change from Baseline to End of Dosing Period, Mean [2]: −19.36% | Percentage of time CGM Glucose in Hyperglycemia (>180 mg/dL), Change from Baseline to End of Dosing Period, Median [2]: −17.72% | Time in target range, LS Mean Change (200 μg Dose (Days 12 to 18), ANCOVA, Insulin Dose < 20 U/day): 21.04% | Time in target range, LS Mean Change (200 μg Dose (Days 12 to 18), ANCOVA, Insulin Dose ≥ 20 U/day): 12.92% | Time in target range, LS Mean Change (200 μg Dose (Days 12 to 18), ANCOVA, Total): 15.62% | Percentage of Time CGM Glucose Within Target Range (70-180 mg/dL), Mean [3]: 89.01% | Percentage of Time CGM Glucose Within Target Range (70-180 mg/dL), Median [3]: 96.38% | Time in target range, Change from Baseline (Days −8 to −2), Mean [3]: 24.48% | Time in target range, Change from Baseline (Days −8 to −2), Median [3]: 23.79% | Time in target range, Difference in LS Mean Change (vs Placebo) [3]: 25.01% | Percentage of Time CGM Glucose Within Target Range (70-180 mg/dL), Mean [4]: 73.53% | Percentage of Time CGM Glucose Within Target Range (70-180 mg/dL), Median [4]: 79.59% | Time in target range, Change from Baseline (Days −8 to −2), Mean [4]: 11.20% | Time in target range, Change from Baseline (Days −8 to −2), Median [4]: 11.27% | Time in target range, Difference in LS Mean Change (vs Placebo) [4]: 18.72% | Percentage of Time CGM Glucose Within Target Range (70-180 mg/dL), Mean [5]: 78.69% | Percentage of Time CGM Glucose Within Target Range (70-180 mg/dL), Median [5]: 80.69% | Time in target range, Change from Baseline (Days −8 to −2), Mean [5]: 15.39% | Time in target range, Change from Baseline (Days −8 to −2), Median [5]: 14.44% | Time in target range, Difference in LS Mean Change (vs Placebo) [5]: 20.96%
